# Entries after “also recorded” stand apart in the source; their conditions may differ. Read-outs that look alike come from different tables or passages of the source.
# Assays:
# [1] = target: T1, CB2 receptor (Homo sapiens, UniProt P34972); assay: [3H]CP-55,940 radioligand competition binding, CB2; parameters: host or cells: cell membrane preparations; conditions: for SI: selectivity index for CB2: Ki(CB1)/Ki(CB2) ratio
# Procedure: (§4) Briefly, the bioassay is carried out using the Perkin Elmer 96-well Top Counter. […] The procedure is as follows.
# (§5) In competition binding experiments, the tested compound dilutions are carried out in duplicate in TME buffer (25 mM Tris, 5 mM MgCl2, 1 mM EDTA) containing 0.1% (w/v) fatty acid free bovine serum albumin (BSA), pH 7.4. […] TME buffer and cell membrane preparations expressing CB receptors (5 μg per well) are added to a final volume of 200 μL. […] After the binding suspensions are incubated at 30° C. for 1 hr, the reaction is terminated by rapid filtration through microfiltration plates (Unifilter GF/B filterplate, PerkinElmer), followed by 5 washes with ice cold TME buffer containing 0.1% BSA on a Packard Filtermate Harvester (PerkinElmer). The plates are then dried overnight and 30 μl MicroScint 0 scintillation cocktail is added to each well of the dried filter plates. The bound radioactivity is then counted using a Perkin Elmer 96-well TopCounter. […] This assay is used for determination of the binding affinity parameters (Ki) of ligand-receptor interactions for the CB receptor.
# [2] = system: peripheral blood mononuclear cell (PBMC); assay: Cytotoxicity on normal human PBMC, trypan blue exclusion; type: cell-based; conditions: 3 days
# Description: Peripheral blood was drawn in a heparinized syringe from healthy fasting volunteers who had been without medication for at least 2 weeks. The peripheral blood mononuclear cell (PBMC) fraction was obtained by gradient centrifugation over Ficoll-Hypaque (Amersham), as described by Feng, R. et al. S. KD5170, a novel mercaptoketone-based histone deacetylase inhibitor, exerts antimyeloma effects by DNA damage and mitochondrial signaling, Mol. Cancer Ther. 2008, 7, 1494-1505. […] The compounds in a stock solution (50 mMin DMSO) were diluted with the culture medium to application conditions and further used for the treatment of PBMC for 3 days. The final DMSO concentrations are always 0.02%. After treatment for 72 h, cell viability was determined using trypan blue exclusion assay. These human cell studies conformed to the guidelines of the Institutional Review Board of the University of Pittsburgh, Pa.
# [3] = system: RAW 264.7 cells; assay: RANKL-induced osteoclast differentiation on RAW 264.7 cells (TRAP); type: cell-based, mouse; conditions: for inhibition at 0.1 µM / inhibition at 1 µM / inhibition at 10 µM: Mus musculus, RAW264.7, read-out: inhibition rate of osteoclast formation; for inhibition at 1 µM / inhibition activity at low dose: 1 μM; for inhibition of RANKL-induced osteoclastogenesis, dose dependence: RANKL 15 ng/mL, 5 days
# Description: FIG. 5. Anti-osteoclastogenesis activity of exemplary compounds. […] The bar indicates the SD. (B) Photographs of cells in the test of compound 93 (original magnification 100×).
# [4] = target: T2, CB1 receptor (Homo sapiens, UniProt P21554); assay: [3H]CP-55,940 radioligand competition binding, CB1; conditions: [3H]CP-55,940 displacement; read-out: Ki (CB1)
# T2 construct: host or cells: cell membrane preparations
# T2 sequence (P21554 whole entry): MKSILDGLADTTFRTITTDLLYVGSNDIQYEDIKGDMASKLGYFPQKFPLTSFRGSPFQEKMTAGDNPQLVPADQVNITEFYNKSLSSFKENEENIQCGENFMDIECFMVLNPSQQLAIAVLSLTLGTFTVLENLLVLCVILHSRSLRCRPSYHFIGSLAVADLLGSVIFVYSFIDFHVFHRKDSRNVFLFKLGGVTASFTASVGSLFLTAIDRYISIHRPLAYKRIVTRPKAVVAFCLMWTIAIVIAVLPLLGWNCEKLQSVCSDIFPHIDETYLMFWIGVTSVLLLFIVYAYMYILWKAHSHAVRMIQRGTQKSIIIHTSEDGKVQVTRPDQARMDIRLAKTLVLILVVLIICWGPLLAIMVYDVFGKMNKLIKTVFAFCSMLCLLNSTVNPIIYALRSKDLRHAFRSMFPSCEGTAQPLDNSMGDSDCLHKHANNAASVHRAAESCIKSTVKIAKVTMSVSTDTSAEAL
# Procedure: as §4, §5
# [5] = system: Human MM cell U266; assay: [3H]-thymidine uptake cell proliferation assay, U266; type: cell-based; conditions: for inhibition of DNA synthesis in MM cells: U266, 0-10 μmol/L, 48 h
# Procedure: (§1) FIG. 2. Inhibitory effects of CB2 ligands on human MM cell growth. Human MM cell U266 (3×10^4 cells per well in 96-well plate) was exposed to the known CB2 ligands (A) or PAM (B) at indicated concentrations (0-10 μmol/L) for 48 h. Cell proliferation was measured by [^3H]-thymidine uptake assay as described in Materials and Methods. (C) U266 cells (3×10^4 per well in 96-well plate) were treated with PAM at indicated doses for 48 h. Cell viability and the viable cell number per well were determined using trypan blue exclusion assay. (D) Human chemoresistant myeloma cell lines MM.1R (dexamethasone), RPMI-8226/LR5 (melphalan) and their respective parent cells MM.1S and RPMI-8226 were exposed to PAM for 48 h. Cell proliferation was measured by ^3H-thymidine incorporation. The data presented are the mean±SD of at least 3 independent measurements. (E) [S^35]-GTPγS binding assay of different ligands on human CB2 receptor expressed in CHO cells.
# (§2) A tritiated thymidine incorporation assay was carried out to investigate the effects of CB2 ligands on cell proliferation. U266, RPMI-8226 (3×10^4 cells/well), MM.1 S cells (6×10^4 cells/well), and their resistant sublines were cultured in 96-well culture plates with or without drugs for 48 hours. DNA synthesis was measured by ^3H-thymidine uptake as described previously.
# [6] = system: MM cells; assay: Apoptosis and cell cycle protein studies in MM cells; type: cell-based
# Description: Since drug resistance is a prevalent problem in multiple myeloma clinical treatment, the ability of compounds according to this invention to overcome chemoresistance of MM cells against conventional drugs such as dexamethasone or melphalan provides an unexpected advantageous benefit in MM treatment. The present inventors have hypothesized that the cell inhibitory activity of the inventive compounds is due to their ability to activate apoptotic processes.
# Compound (1) also altered certain proteins that are known to play a role in the cell-growth cycle. […] To further explore this observation, the present inventors investigated the effect of compound (1) on several proteins involved in cell G2-M phase transition.
# [7] = system: bone marrow mononuclear cells (MNC); assay: RANKL-induced osteoclast formation in bone marrow mononuclear cells; type: cell-based, murine and human
# Procedure: FIG. 4. Effects of XIE35 and compound (1) on RANKL-induced osteoclast formation in bone marrow mononuclear cells (MNC). […] Half-medium change was performed every other day using drug-containing media where appropriate. After 5 days, the cells were fixed and stained for TRAP activity using a TRAP-staining kit (Sigma-Aldrich) according to the manufacturer's instructions. Lower panel: Human bone marrow MNCs (1×10^5 per well) were treated with rhRANKL (50 ng/ml) plus rhM-CSF (10 ng/ml), and the respective compounds as described above. After three weeks, differentiation into OCLs was assessed by staining with monoclonal antibody 23c6 using a Vectastatin-ABC-AP kit (Vector Laboratories). The antibody 23c6, which recognizes CD51/61 dimer constituting the OCL vitronectin receptor, was kindly provided by the Bone Biology Center of our university. Images were obtained with an Olympus IX70 microscope. Arrows designate the typical multinucleated osteoclasts with 3 or more nuclei.
# [8] = system: MM1.S cells expressing shRNA against human CB2; assay: Proliferation in CB2 knockdown MM1.S cells; type: cell-based; conditions: 48 h, [3H]TdR uptake
# Procedure: (§3) FIG. 3. Inhibitory activity of PAM (compound (1)) in CB2 knockdown or agonist treated cells. (A) CB2 gene silencing in MM1.S cells confirmed by Western blot with CB2antibody. (B) Human MM1.S cells expressing shRNA vector or expressing the specific shRNA against human CB2 were treated with vehicle control (white column), or the indicated concentrations of PAM (black column) for 48 h. Cell proliferation was measured by [^3H]TdR uptake. […] The cell viability and the viable cells/well were determined using trypan blue exclusion assay.
# [9] = system: U266 cells; assay: Trypan blue viability of U266 cells with CB2 agonist; type: cell-based, human; conditions: Win55212-2 or CP55940, 48 h
# Procedure: as §3
# [10] = target: T1, CB2 receptor; assay: Cell-based cAMP assay
# Description: Cell-based cAMP assays were used to identify the mode by which the CB2 ligands according to the present invention modulate CB2 receptor.
# [11] = system: MM.1S and RPMI-8226 cells; assay: [3H]-thymidine incorporation, parent myeloma cell lines; type: cell-based, human; conditions: MM.1S and RPMI-8226, 48 h
# Procedure: as §1, §2
# [12] = system: MM.1R (dexamethasone) and RPMI-8226/LR5 (melphalan) cells; assay: [3H]-thymidine incorporation, chemoresistant myeloma cell lines; type: cell-based; conditions: Homo sapiens; MM.1R and RPMI-8226/LR5, 48 h; read-out: growth inhibition of chemoresistant myeloma cell lines, IC50
# Procedure: as §1, §2
# [13] = target: T3, human CB2 receptor expressed in CHO cells (Homo sapiens, UniProt P34972); assay: [35S]-GTPγS binding assay; type: biochemical
# T3 construct: expressed in transfected cells; host or cells: CHO cells
# T3 sequence (P34972 whole entry): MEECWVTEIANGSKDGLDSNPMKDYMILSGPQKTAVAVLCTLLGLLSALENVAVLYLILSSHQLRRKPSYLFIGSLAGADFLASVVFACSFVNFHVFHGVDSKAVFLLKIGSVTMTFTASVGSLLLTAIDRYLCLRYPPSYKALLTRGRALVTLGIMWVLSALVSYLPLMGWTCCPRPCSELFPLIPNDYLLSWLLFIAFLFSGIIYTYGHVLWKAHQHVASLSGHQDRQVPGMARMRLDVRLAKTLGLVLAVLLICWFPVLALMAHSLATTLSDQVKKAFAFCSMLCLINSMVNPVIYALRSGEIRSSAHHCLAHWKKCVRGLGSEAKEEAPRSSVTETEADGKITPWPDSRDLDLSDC
# [14] = [3H]CP-55,940 displacement, read-out: Ki (CB2)
# T1 sequence (P34972 whole entry): as above
smiles,measurement,setting,value
"CCN(CC)c1ccc(C(NC(=O)Cc2ccccc2)NC(=O)Cc2ccccc2)cc1 [Compound 17, N,N′-((4-(diethylamino)phenyl)methylene)bis(2-phenylacetamide)]",SI: selectivity index for CB2,[1],>313
same,Ki,[1]; [14],64 nM
same,cytotoxic effects,[2]; 1 μM,did not show any cytotoxic effects
same,effects on cell viability,[2]; 10 μM,only slight effects on cell viability
same,cell viability vs vehicle control,[2],not significantly affected
same,inhibition at 0.1 µM,[3],72%
same,inhibition at 1 µM,[3],79%
same,inhibition at 10 µM,[3],84%
"CCN(CC)c1ccc(CN(c2ccc(Cl)cc2)S(=O)(=O)c2ccc(OC)cc2)cc1 [Compound 84, N-(4-Chlorophenyl)-N-(4-(diethylamino)benzyl)-4-methoxybenzenesulfonamide]",SI: selectivity index for CB2,[1],">1,428"
same,Ki,[1]; [14],14 nM
same,effect on cell viability,[2]; 5 μM,only slight effect on cell viability
same,cell viability vs vehicle control,[2]; 1.25 and 2.5 μM,not significantly affected
same,effects on cell viability,[2]; 5 and 10 μM,only some effects on cell viability
same,cell viability vs vehicle control,[2],not significantly affected
same,inhibition activity at low dose,[3],good inhibition activity
same,inhibition at 1 µM,[3],97%
same,"inhibition of RANKL-induced osteoclastogenesis, dose dependence",[3],dose-dependent manner
same,Ki,[4],> 20000 nM
CCCCCCC(C)(C)c1cc(OC)c([C@@H]2C=C(CO)[C@@H]3C[C@H]2C3(C)C)c(OC)c1 [Hu308],inhibition of DNA synthesis in MM cells,[5],no effect
"CCN(CC)c1ccc(CN(c2ccc(C)cc2)S(=O)(=O)c2ccc(OC)cc2)cc1 [Compound 93, N-(4-(Diethylamino)benzyl)-4-methoxy-N-(p-tolyl)benzenesulfonamide]",SI: selectivity index for CB2,[1],2594
same,Ki,[1]; [14],0.5 nM
same,cell viability vs vehicle control,[2]; 1.25 and 2.5 μM,not significantly affected
same,effects on cell viability,[2]; 5 and 10 μM,only some effects on cell viability
same,cell viability vs vehicle control,[2],not significantly affected
same,inhibition activity at low dose,[3],good inhibition activity
same,inhibition at 0.1 µM,[3],46%
same,inhibition at 1 µM,[3],97%
same,inhibition at 10 µM,[3],100%
same,"inhibition of RANKL-induced osteoclastogenesis, dose dependence",[3],dose-dependent manner
same,Ki,[4],1300 nM
"CN(C)c1ccc(C(NC(=O)Cc2ccccc2)NC(=O)Cc2ccccc2)cc1 [Compound 1, N,N′-((4-(dimethylamino)phenyl)methylene)bis(2-phenylacetamide)]",ER stress-induced transcription factor CHOP,[6],transiently upregulated
same,H2A.X phosphorylation,[6],did not have any effect
same,MAPK family members in treated MM cells,[6],not up regulated
same,effect on Cdc25C activation of Cdc2,[6],prevents the tyrosine phosphatase Cdc25C from activating cyclin-B bound Cdc2
same,number of cells in the G0-G1 phase,[6]; various concentrations,does not change
same,number of cells in the S-phase and G2-M phase,[6]; various concentrations,decreased in a dose dependent manner
same,RANKL/M-CSF induced osteoclast formation,"[7]; 1 μM, murine 5 days, human three weeks",anti-osteoclast activity; also recorded: completely blocking osteoclast formation
same,toxicity,[7]; concentrations as high as 1 μM,non-toxic
same,SI: selectivity index for CB2,[1],>26
same,Ki,[1]; [14],777 nM
same,IC50,"[5]; Homo sapiens, U-266, U266, 48 h, [3H]-thymidine uptake, read-out: inhibition of DNA synthesis in MM cells, IC50",1250 nM
same,anti-MM activity after stable knockout of CB2,[8],largely abrogated
same,inhibition of MM cell growth after pretreatment with CB2 agonist,[9],attenuated
same,mode of CB2 modulation (c-AMP studies),[10],inverse agonist
same,growth inhibitory effect on parent cells,[11],no growth inhibitory effect
same,IC50,[12],600 to 1200 nM
same,CB2 receptor modulatory activity ([35S]-GTPγS),[13],inverse CB2 receptor agonist
"CC(C)Oc1ccc(C(NC(=O)Cc2ccccc2)NC(=O)Cc2ccccc2)cc1 [Compound 12, N,N′-((4-isopropoxyphenyl)methylene)bis(2-phenylacetamide)]",cell viability vs vehicle control,[2],not significantly affected
"CC(C)c1ccc(C(NC(=O)Cc2ccccc2)NC(=O)Cc2ccccc2)cc1 [Compound 9, N,N′-((4-isopropylphenyl)methylene)bis(2-phenylacetamide)]",cell viability vs vehicle control,[2],not significantly affected
"CCN(CC)c1ccc(CN(C23CC4CC(CC(C4)C2)C3)S(=O)(=O)c2cccc(C)c2)cc1 [Compound 61, N-((3s,5s,7s)-Adamantan-1-yl)-N-(4-(diethylamino)benzyl)-3-methylbenzenesulfonamide]",Ki,[1],19 nM
same,"inhibition of RANKL-induced osteoclastogenesis, dose dependence",[3],dose-dependent manner
same,Ki,[4],8220 nM
COc1ccc(C(=O)c2c(C)n(CCN3CCOCC3)c3cc(I)ccc23)cc1 [AM630],inhibition of DNA synthesis in MM cells,[5],dose dependent inhibition
"CCN(CC)c1ccc(CN(c2ccc(C)cc2)S(=O)(=O)c2ccc(Cl)cc2)cc1 [Compound 92, 4-Chloro-N-(4-(diethylamino)benzyl)-N-(p-tolyl)benzenesulfonamide]",Ki,[1]; [14],3 nM
same,Ki,[4],412 nM
